Calls of active or inactive are those of the source. No cut-off for these calls is given here.
Assays:
[1] = test system: Mus musculus; test: Antiobesity activity in diet-induced obese C57Bl/6 mouse assessed as reduction in HOMA-IR value at 150 mg/kg/day, po for 4 weeks administered with high-fat diet (reference value: 0.94 +/- 0.23 no_unit); assay type: functional
[2] = test system: Mus musculus; test: Decrease in insulin resistance in diet-induced obese C57Bl/6 mouse at 150 mg/kg/day, po for 4 weeks by insulin tolerance test; assay type: functional, organism-based
[3] = test system: Mus musculus; test: Increase in glucose tolerance in diet-induced obese C57Bl/6 mouse assessed as induction of insulin secretion at 150 mg/kg/day, po for 4 weeks by oral glucose tolerance test; assay type: functional, organism-based
[4] = test system: Mus musculus; test: Antiobesity activity in diet-induced obese C57Bl/6 mouse assessed as reduction in body weight at 150 mg/kg/day, po for 4 weeks administered with high-fat diet; assay type: functional; set-up: scale not given: the % may be the effect or the level left
[5] = test system: Mus musculus; test: Antiobesity activity in diet-induced obese C57Bl/6 mouse assessed as reduction in LDL level at 150 mg/kg/day, po for 4 weeks administered with high-fat diet (reference value: 0.14 +/- 0.07 mM); assay type: functional
[6] = test system: Mus musculus; test: Antiobesity activity in diet-induced obese C57Bl/6 mouse assessed as reduction in FFA level at 150 mg/kg/day, po for 4 weeks administered with high-fat diet (reference value: 19.55 +/- 1.57 ng/L); assay type: functional
[7] = test system: Mus musculus; test: Antiobesity activity in diet-induced obese C57Bl/6 mouse assessed as reduction in fasting blood glucose at 150 mg/kg/day, po for 4 weeks administered with high-fat diet (reference value: 5.0 +/- 1.30 mM); assay type: functional
[8] = test system: Mus musculus; test: Antiobesity activity in diet-induced obese C57Bl/6 mouse assessed as reduction in triglyceride level at 150 mg/kg/day, po for 4 weeks administered with high-fat diet (reference value: 0.93 +/- 0.09 mM); assay type: functional
[9] = test system: Mus musculus; test: Antiobesity activity in diet-induced obese C57Bl/6 mouse assessed as reduction in triglyceride level at 150 mg/kg/day, po for 4 weeks administered with high-fat diet (reference value: 0.96 +/- 0.14 mM); assay type: functional
[10] = test system: Mus musculus; test: Antiobesity activity in diet-induced obese C57Bl/6 mouse assessed as reduction in hepatic triglyceride level at 150 mg/kg/day, po for 4 weeks administered with high-fat diet by Oil Red O staining-based histological method; assay type: functional; set-up: scale not given: the % may be the effect or the level left
[11] = test system: Mus musculus; test: Antiobesity activity in diet-induced obese C57Bl/6 mouse assessed as increase in HDL level at 150 mg/kg/day, po for 4 weeks administered with high-fat diet (reference value: 1.02 +/- 0.13 mM); assay type: functional
[12] = test system: Mus musculus; test: Antiobesity activity in diet-induced obese C57Bl/6 mouse assessed as reduction in fasting blood glucose at 150 mg/kg/day, po for 4 weeks administered with high-fat diet (reference value: 4.88 +/- 0.75 mM); assay type: functional
[13] = test system: Mus musculus; test: Antiobesity activity in diet-induced obese C57Bl/6 mouse assessed as increase in HDL level at 150 mg/kg/day, po for 4 weeks administered with high-fat diet (reference value: 0.60 +/- 0.17 mM); assay type: functional
[14] = test system: Mus musculus; test: Antiobesity activity in diet-induced obese C57Bl/6 mouse assessed as reduction in LDL level at 150 mg/kg/day, po for 4 weeks administered with high-fat diet (reference value: 0.13 +/- 0.02 mM); assay type: functional
[15] = test system: Mus musculus; test: Antiobesity activity in diet-induced obese C57Bl/6 mouse assessed as loss of liver weight at 150 mg/kg/day, po for 4 weeks administered with high-fat diet; assay type: functional
[16] = test system: Mus musculus; test: Antiobesity activity in diet-induced obese C57Bl/6 mouse assessed as change in insulin level at 150 mg/kg/day, po for 4 weeks administered with high-fat diet (reference value: 4.31 +/- .82 mU); assay type: functional
[17] = test system: Mus musculus; test: Antiobesity activity in diet-induced obese C57Bl/6 mouse assessed as change in insulin level at 150 mg/kg/day, po for 4 weeks administered with high-fat diet (reference value: 11.85 +/- 2.6 mU); assay type: functional
[18] = test system: Mus musculus; test: Antiobesity activity in diet-induced obese C57Bl/6 mouse assessed as loss of epididymal fat mass at 150 mg/kg/day, po for 4 weeks administered with high-fat diet; assay type: functional
[19] = test system: Mus musculus; test: Antiobesity activity in diet-induced obese C57Bl/6 mouse assessed as reduction in FFA level at 150 mg/kg/day, po for 4 weeks administered with high-fat diet (reference value: 25.07 +/- 3.49 ng/L); assay type: functional

In the case of CN(C)C(=N)NC(=N)N [METFORMIN], the Activity [1] is reported as 1.73, the Activity [2] is reported as “Active” and the Activity [3] is reported as “Active”. For the same compound, the Activity [4] was 19.08%, the Activity [5] was 0.12 mM and the Activity [6] was 21.56 ng/L. It also gave an Activity [7] of 5.32 mM, an Activity [8] of 0.92 mM and an Activity [9] of 1.07 mM. For the same compound, the Activity [10] was 10.73%, the Activity [11] was 1.38 mM and the Activity [12] was 7.57 mM. The Activity [13] was 0.82 mM, the Activity [14] was 0.17 mM and the Activity [15] was 23.2%. The Activity [16] was 5.48 mU, the Activity [17] was 8.1 mU and the Activity [18] was 22.94%. It also gave an Activity [19] of 26.05 ng/L.

Reference: ChEMBL document CHEMBL3352801, “Synthesis and lipid-lowering evaluation of 3-methyl-1H-purine-2,6-dione derivatives as potent and orally available anti-obesity agents” (Eur J Med Chem, 2014)
